Results from ChEMBL document CHEMBL1151659, “Effects of Sesquiterpene Lactones on Development of Aedes atropalpus and Relation to Partition Coefficient” (J Nat Prod, 1985).
Active and inactive are the calls of the source. No cut-off for these calls is given here.

Columns and labels:
[1] = tested on: Aedes atropalpus; assay: Toxicity in second-instar Aedes atropalpus larvae at 100 ppm after 24 hrs; format: functional, organism-based
[2] = tested on: Aedes atropalpus; assay: Toxicity in second-instar Aedes atropalpus larvae at 10 ppm after 24 hrs; format: functional, organism-based
[3] = tested on: Aedes atropalpus; assay: Toxicity in second-instar Aedes atropalpus in pupal stage assessed as growth; format: functional, organism-based
[4] = Partition coefficient, log P of the compound; format: physicochemical; settings: octanol/water
[5] = tested on: Aedes atropalpus; assay: Toxicity in second-instar Aedes atropalpus in adult stage assessed as growth; format: functional, organism-based

Row | SMILES | logP [4] | Activity [1] | Activity [2] | Activity [3] | Activity [5]
1 | C=C1C(=O)O[C@@H]2C[C@@]3(C)CCCC(=C)[C@@H]3C[C@H]12 [ISOALANTOLACTONE] | 3.42 | Active | Active | Active | Active
2 | C=C1C(=O)O[C@@H]2C[C@@]3(C)CCC[C@H](C)C3=C[C@H]12 [HELENINE] | 3.38 | Active | Active | Active | Active
3 | C=C1C(=O)O[C@@H]2[C@H]1CC[C@H](C)[C@]1(O)C=CC(=O)[C@@]21C [PARTHENIN] | 1.37 | Active | Active | Active | Active
4 | C=C1C(=O)O[C@@H]2[C@H]1CC[C@H](C)[C@@H]1[C@H](O)CC(=O)[C@]12C [BIPINNATIN] | 1.62 |  |  | Active | Active

Now from value to molecule, other results behind:

Row | logP [4] | SMILES | Activity [1] | Activity [2] | Activity [3] | Activity [5]
5 | 1.42 | C=C1C(=O)O[C@@H]2[C@H]1CC[C@H](C)[C@]1(O)CCC(=O)[C@@]21C [CORONOPILIN] |  |  | Active | Active
6 | 1.7 | C[C@H]1C(=O)O[C@@H]2[C@H]1CC[C@H](C)[C@]1(O)C=CC(=O)[C@@]21C [HYMENOLIN] |  |  | Active | Active
